The first assay concerns the target T1, HCV helicase (helicase domain of NS3 protein) (UniProt P27958).
T1 construct: The helicase domain of NS3 protein was expressed in a baculovirus system in HF insect cell line; fused on or other part: Histidine tag, inferred from the Talon cobalt column purification ('histidine repetitions')
In words: Fluorometric (FRET) antihelicase activity assay. In kind it is biochemical, hepatitis C virus (HCV). The conditions noted are these: concentration inhibiting 50% of helicase activity; 10 nM enzyme pre-incubated 15 min with derivative, unwinding at 30° C. for 60 min. The text has this: A reaction takes place on a 96- or 384-well microtitration plate and a course of the reaction is observed in real time.
The helicase domain of NS3 protein was expressed in a baculovirus system in HF insect cell line.
In this assay, FAM fluorescence is quenched by fluorescence energy transfer (FRET) to the BHQ molecule, while unwinding of double-stranded DNA structure leads to decrease of FRET phenomenon and increase of FAM fluorescence signal. The assay allows for examining a large number of samples, i.e., different helicase inhibitors at various concentrations and with many repetitions, in standardized conditions. The reaction is conducted in a microtitration plate. The reaction process is observed in real time.
The enzyme (10 nM) was pre-incubated with the tested derivatives dissolved in DMSO (0.005 to 20 μM concentration) without ATP for 15 min at room temperature. The reaction of DNA unwinding was started by addition of ATP and was carried out at 30° C. for 60 min in a Synergy HTi (Biotek) fluorometer. […] Fluorescence was measured every 2 mins.
The enzyme activity was calculated as the initial reaction velocity from the linear part of reaction curve (fluorescence growth as a function of time) using a linear regression method. Inhibition was calculated as comparison of activity of the helicase incubated with inhibitor to activity of the helicase incubated without inhibitor, but with a proper concentration of DMSO, expressed in percent.
T1 sequence (P27958 1027-1657): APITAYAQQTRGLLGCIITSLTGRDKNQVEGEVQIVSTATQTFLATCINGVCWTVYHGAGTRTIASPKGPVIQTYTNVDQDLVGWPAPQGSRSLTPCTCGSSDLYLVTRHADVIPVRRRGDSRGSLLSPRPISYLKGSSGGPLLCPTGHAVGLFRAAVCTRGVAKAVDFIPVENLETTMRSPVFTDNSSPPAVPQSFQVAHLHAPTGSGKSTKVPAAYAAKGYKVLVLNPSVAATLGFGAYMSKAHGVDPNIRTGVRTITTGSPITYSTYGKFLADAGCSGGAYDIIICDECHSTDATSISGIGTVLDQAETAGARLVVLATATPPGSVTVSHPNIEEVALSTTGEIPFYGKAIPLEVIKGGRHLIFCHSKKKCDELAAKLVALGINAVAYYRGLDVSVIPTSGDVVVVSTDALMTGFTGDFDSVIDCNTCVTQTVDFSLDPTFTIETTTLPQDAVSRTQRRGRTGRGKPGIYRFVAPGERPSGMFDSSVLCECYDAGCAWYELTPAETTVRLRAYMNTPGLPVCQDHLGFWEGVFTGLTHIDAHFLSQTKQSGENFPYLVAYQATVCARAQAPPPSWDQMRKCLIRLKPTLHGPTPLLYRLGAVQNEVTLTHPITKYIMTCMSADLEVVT
Consider `COc1cccc2c1C(=O)c1c(O)c3c(c(O)c1C2=O)CC(O)(C(C)=O)CC3OC1CC(N=CN2CCN(C)CC2)C(O)C(C)O1` (stereo not shown) [Derivative 76], for which the IC50 was determined as 0.77 µM.

The assay is the same for the next values; noted with them: concentration inhibiting 50% of helicase activity; 10 nM enzyme pre-incubated 15 min with derivative, unwinding at 30° C. for 60 min; read-out: IC50.
On to `COc1cccc2c1C(=O)c1c(O)c3c(c(O)c1C2=O)CC(O)(C(=O)CO)CC3OC1CC(N=CN2CCCCCC2)C(O)C(C)O1` (stereo not shown) [Derivative 111], for which the IC50 was found to be 1.72 µM.

As to `COc1cccc2c1C(=O)c1c(O)c3c(c(O)c1C2=O)CC(O)(C(C)=O)CC3OC1CC(N=C(C)N2CCOCC2)C(O)C(C)O1` (stereo not shown) [Derivative 89], the IC50 turned out to be 0.05 µM.

Take `COc1cccc2c1C(=O)c1c(O)c3c(c(O)c1C2=O)CC(O)(C(=O)CO)CC3OC1CC(N=CN2CCc3ccccc32)C(O)C(C)O1` (stereo not shown) [Derivative 114]: the half-inhibitory concentration (IC50) is 0.14 µM.

`COc1cccc2c1C(=O)c1c(O)c3c(c(O)c1C2=O)CC(O)(C(C)=O)CC3OC1CC(N=C(C)N2CCN(C)CC2)C(O)C(C)O1` (stereo not shown) [Derivative 25]: the IC50 was determined as 6.25 µM.

As for `COc1cccc2c1C(=O)c1c(O)c3c(c(O)c1C2=O)CC(O)(C(C)=O)CC3OC1CC(N=CN2CCN(C)CC2)C(O)C(C)O1` (stereo not shown) [Derivative 76], the IC50 is 0.76 ± 0.21 µM.

As for `COc1cccc2c1C(=O)c1c(O)c3c(c(O)c1C2=O)CC(O)(C(=O)CO)CC3OC1CC(N=CN2CCN(C)CC2)C(O)C(C)O1` (stereo not shown) [Derivative 42], the IC50 worked out at 0.98 µM.

As to `COc1cccc2c1C(=O)c1c(O)c3c(c(O)c1C2=O)CC(O)(C(C)=O)CC3OC1CC(N=C(C)N2CCCCC2)C(O)C(C)O1` (stereo not shown) [Derivative 91], the IC50 came to 0.03 µM.

As to `CCN(CC)C(C)=NC1CC(OC2CC(O)(C(C)=O)Cc3c(O)c4c(c(O)c32)C(=O)c2c(OC)cccc2C4=O)OC(C)C1O` (stereo not shown) [Derivative 98], the IC50 was found to be 0.18 µM.

On to `COc1cccc2c1C(=O)c1c(O)c3c(c(O)c1C2=O)CC(O)(C(C)=O)CC3OC1CC(N=CN2CCc3ccccc32)C(O)C(C)O1` (stereo not shown) [Derivative 78], for which the IC50 was 0.45 µM.

As to `COc1cccc2c1C(=O)c1c(O)c3c(c(O)c1C2=O)CC(O)(C(=O)CO)CC3OC1CC(N=C(C)N2CCCCC2)C(O)C(C)O1` (stereo not shown) [Derivative 56], the IC50 came out at 3.35 µM.

Turning to `COc1cccc2c1C(=O)c1c(O)c3c(c(O)c1C2=O)CC(O)(C(=O)CO)CC3OC1CC(N=CN(C)C(C)c2ccccc2)C(O)C(C)O1` (stereo not shown) [Derivative 122], the IC50 was 2.53 µM.

For `COc1cccc2c1C(=O)c1c(O)c3c(c(O)c1C2=O)CC(O)(C(C)=O)CC3OC1CC(N=CN2CCCCC2)C(O)C(C)O1` (stereo not shown) [Derivative 5], the IC50 came out at 3.5 µM.

Turning to `COc1cccc2c1C(=O)c1c(O)c3c(c(O)c1C2=O)CC(O)(C(C)=O)CC3OC1CC(N=C(C)N2CCc3ccccc32)C(O)C(C)O1` (stereo not shown) [Derivative 27], the IC50 is 11.3 µM.

`COc1cccc2c1C(=O)c1c(O)c3c(c(O)c1C2=O)CC(O)(C(=O)CO)CC3OC1CC(N=CN2CCOCC2)C(O)C(C)O1` (stereo not shown) [Derivative 37]: the half-inhibitory concentration (IC50) was 2.12 µM.

For the compound `CCCN(CCC)C(C)=NC1CC(OC2CC(O)(C(C)=O)Cc3c(O)c4c(c(O)c32)C(=O)c2c(OC)cccc2C4=O)OC(C)C1O` (stereo not shown) [Derivative 100], the 50% inhibitory concentration (IC50) was 1.9 µM.

For the compound `COc1cccc2c1C(=O)c1c(O)c3c(c(O)c1C2=O)CC(O)(C(=O)CO)CC3OC1CC(N=CN2CCCCC2)C(O)C(C)O1` (stereo not shown) [Derivative 109], the IC50 was 0.76 µM.

Consider `COc1cccc2c1C(=O)c1c(O)c3c(c(O)c1C2=O)CC(O)(C(=O)CO)CC3OC1CC(N=C(C)N2CCCC2)C(O)C(C)O1` (stereo not shown) [Derivative 52], for which the IC50 was found to be 0.5 µM.

In the case of `COc1cccc2c1C(=O)c1c(O)c3c(c(O)c1C2=O)CC(O)(C(C)=O)CC3OC1CC(N=CN2CCCCC2)C(O)C(C)O1` (stereo not shown) [Derivative 73], the IC50 worked out at 2.39 µM.

For the compound `COc1cccc2c1C(=O)c1c(O)c3c(c(O)c1C2=O)CC(O)(C(C)=O)CC3OC1CC(N=CN2CCCC2)C(O)C(C)O1` (stereo not shown) [Derivative 1], the half-inhibitory concentration (IC50) was 1.84 µM.

Turning to `COc1cccc2c1C(=O)c1c(O)c3c(c(O)c1C2=O)CC(O)(C(C)=O)CC3OC1CC(N=C(C)N2CCN(C)CC2)C(O)C(C)O1` (stereo not shown) [Derivative 95], the IC50 was 0.09 ± 0.01 µM.

In the case of `CCCCN(C=NC1CC(OC2CC(O)(C(C)=O)Cc3c(O)c4c(c(O)c32)C(=O)c2c(OC)cccc2C4=O)OC(C)C1O)CCCC` (stereo not shown) [Derivative 84], the IC50 came to 2.05 µM.

`COc1cccc2c1C(=O)c1c(O)c3c(c(O)c1C2=O)CC(O)(C(=O)CO)CC3OC1CC(N=CN2CCCC2)C(O)C(C)O1` (stereo not shown) [Derivative 35]: the half-maximal inhibitory concentration (IC50) was determined as 0.55 µM.

Turning to `COc1cccc2c1C(=O)c1c(O)c3c(c(O)c1C2=O)CC(O)(C(C)=O)CC3OC1CC(N=CN2CCCC2)C(O)C(C)O1` (stereo not shown) [Derivative 69], the IC50 amounted to 1.08 µM.

Consider `COc1cccc2c1C(=O)c1c(O)c3c(c(O)c1C2=O)CC(O)(C(=O)CO)CC3OC1CC(N=C(C)N2CCN(C)CC2)C(O)C(C)O1` (stereo not shown) [Derivative 131], for which the IC50 came to 0.13 µM.

For `COc1cccc2c1C(=O)c1c(O)c3c(c(O)c1C2=O)CC(O)(C(=O)CO)CC3OC1CC(N=CN2CCN(C)CC2)C(O)C(C)O1` (stereo not shown) [Derivative 112], the 50% inhibitory concentration (IC50) was determined as 1.53 µM.

`CCN(CC)C(C)=NC1CC(OC2CC(O)(C(=O)CO)Cc3c(O)c4c(c(O)c32)C(=O)c2c(OC)cccc2C4=O)OC(C)C1O` (stereo not shown) [Derivative 135]: the IC50 amounted to 1.24 µM.

Take `COc1cccc2c1C(=O)c1c(O)c3c(c(O)c1C2=O)CC(O)(C(=O)CO)CC3OC1CC(N=CN2CCOCC2)C(O)C(C)O1` (stereo not shown) [Derivative 107]: the IC50 turned out to be 0.97 µM.

Consider `COc1cccc2c1C(=O)c1c(O)c3c(c(O)c1C2=O)CC(O)(C(=O)CO)CC3OC1CC(N=C(C)N2CCN(C)CC2)C(O)C(C)O1` (stereo not shown) [Derivative 59], for which the IC50 was 0.42 µM.

In the case of `CCN(C=NC1CC(OC2CC(O)(C(C)=O)Cc3c(O)c4c(c(O)c32)C(=O)c2c(OC)cccc2C4=O)OC(C)C1O)CC` (stereo not shown) [Derivative 12], the IC50 came to 1.58 µM.

Turning to `COc1cccc2c1C(=O)c1c(O)c3c(c(O)c1C2=O)CC(O)(C(C)=O)CC3OC1CC(N=C(C)N2CCCC2)C(O)C(C)O1` (stereo not shown) [Derivative 18], the IC50 amounted to 0.41 µM.

In the case of `CCN(C=NC1CC(OC2CC(O)(C(C)=O)Cc3c(O)c4c(c(O)c32)C(=O)c2c(OC)cccc2C4=O)OC(C)C1O)CC` (stereo not shown) [Derivative 80], the IC50 worked out at 0.3 µM.

With `COc1cccc2c1C(=O)c1c(O)c3c(c(O)c1C2=O)CC(O)(C(=O)CO)CC3OC1CC(N=CN2CCCCCC2)C(O)C(C)O1` (stereo not shown) [Derivative 41], the IC50 turned out to be 1.61 µM.

For the compound `CCN(C=NC1CC(OC2CC(O)(C(=O)CO)Cc3c(O)c4c(c(O)c32)C(=O)c2c(OC)cccc2C4=O)OC(C)C1O)CC` (stereo not shown) [Derivative 46], the 50% inhibitory concentration (IC50) turned out to be 1.32 µM.

As for `COc1cccc2c1C(=O)c1c(O)c3c(c(O)c1C2=O)CC(O)(C(C)=O)CC3OC1CC(N=CN2CCOCC2)C(O)C(C)O1` (stereo not shown) [Derivative 71], the IC50 came out at 3.13 µM.

Consider `COc1cccc2c1C(=O)c1c(O)c3c(c(O)c1C2=O)CC(O)(C(=O)CO)CC3OC1CC(N=C(C)N2CCCCC2)C(O)C(C)O1` (stereo not shown) [Derivative 127], for which the half-inhibitory concentration (IC50) came to 0.22 µM.

With `COc1cccc2c1C(=O)c1c(O)c3c(c(O)c1C2=O)CC(O)(C(C)=O)CC3OC1CC(N=CN2CCN(C)CC2)C(O)C(C)O1` (stereo not shown) [Derivative 8], the half-maximal inhibitory concentration (IC50) was 1.96 µM.

Take `COc1cccc2c1C(=O)c1c(O)c3c(c(O)c1C2=O)CC(O)(C(=O)CO)CC3OC1CC(N=C(C)N2CCCC2)C(O)C(C)O1` (stereo not shown) [Derivative 123]: the IC50 is 0.31 µM.

For `CCCN(C=NC1CC(OC2CC(O)(C(=O)CO)Cc3c(O)c4c(c(O)c32)C(=O)c2c(OC)cccc2C4=O)OC(C)C1O)CCC` (stereo not shown) [Derivative 118], the IC50 was found to be 2.21 µM.

For the compound `CCN(C=NC1CC(OC2CC(O)(C(=O)CO)Cc3c(O)c4c(c(O)c32)C(=O)c2c(OC)cccc2C4=O)OC(C)C1O)CC` (stereo not shown) [Derivative 116], the IC50 was 2.17 µM.

Consider `COc1cccc2c1C(=O)c1c(O)c3c(c(O)c1C2=O)CC(O)(C(C)=O)CC3OC1CC(N=CN2CCN(C)CC2)C(O)C(C)O1` (stereo not shown) [Derivative 77], for which the IC50 worked out at 0.78 ± 0.18 µM.

Regarding `COc1cccc2c1C(=O)c1c(O)c3c(c(O)c1C2=O)CC(O)(C(C)=O)CC3OC1CC(N=C(C)N2CCCCC2)C(O)C(C)O1` (stereo not shown) [Derivative 22], the IC50 was determined as 0.7 µM.

Turning to `COc1cccc2c1C(=O)c1c(O)c3c(c(O)c1C2=O)CC(O)(C(C)=O)CC3OC1CC(N=CN2CCCCCC2)C(O)C(C)O1` (stereo not shown) [Derivative 7], the IC50 was 1.33 µM.

For the compound `COc1cccc2c1C(=O)c1c(O)c3c(c(O)c1C2=O)CC(O)(C(C)=O)CC3OC1CC(N=CN2CCOCC2)C(O)C(C)O1` (stereo not shown) [Derivative 3], the IC50 stood at 3.17 µM.

Consider `COc1cccc2c1C(=O)c1c(O)c3c(c(O)c1C2=O)CC(O)(C(=O)CO)CC3OC1CC(N=CN2CCCCC2)C(O)C(C)O1` (stereo not shown) [Derivative 39], for which the IC50 was found to be 2.84 µM.

For `COc1cccc2c1C(=O)c1c(O)c3c(c(O)c1C2=O)CC(O)(C(C)=O)CC3OC1CC(N=C(C)N2CCCCCC2)C(O)C(C)O1` (stereo not shown) [Derivative 93], the IC50 was found to be 0.99 µM.

The values above are taken from patent publication US20090298786A1, “METHODS OF TREATING VIRAL INFECTIONS WITH ANTHRACYCLINE ANTIBIOTICS” (priority 2007, published 2009).
